This passage reports solubility results from US9227995B2, “Peptides” (DRUG DISCOVERY LABORATORY AS, priority 2010, dated 2016).

Where only a bound is given, the exact number is not on record here.

The nature of this data set: aqueous solubility of the peptide. The class given is physicochemical. To be noted: water; stated as significantly higher compared to acyclic 21.

With `COC(=O)C(C)(C)NC(=O)[C@@H]1COCc2cn(nn2)CCC[C@H](NC(=O)C(C)(C)NC(=O)C(C)(C)NC(=O)C(C)(C)NC(=O)OC(C)(C)C)C(=O)NC(C)(C)C(=O)NC(C)(C)C(=O)N1` [compound 23, Methyl 2-methyl-2-((5S,14S)-8,8,11,11-tetramethyl-5-(2,2,6,6,9,9,12,12-octamethyl-4,7,10-trioxo-3-oxa-5,8,11-triazamidecanamido)-6,9,12-trioxo-16-oxa-1,7,10,13,19,20-hexaazabicyclo[16.2.1]henicosa-18 (21),19-dienecarboxamido)propanoate], the solubility is over 1000 µM.
